Assay results from patent publication US10842794B2, “Use of Sigma-1 receptor agonist compounds” (MTA TÁMOGATOTT KUTATÓCSOPORTOK IRODÁJA, priority 2014, dated 2020).

Assays:
NRK49F cells = assay: Cell viability MTT assay in myofibroblasts; assay type: cell-based, rat; details: 24-hours treatment, commonly used doses 1-10 μM
[1] = system: NRK49F rat kidney interstitial fibroblast cell lines; assay: PDGFB-induced myofibroblast proliferation (MTT); assay type: cell-based; details: 10 ng/mL PDGFB, 24 hours, different concentrations of agonist
[2] = system: Streptozotocin induced type 1 diabetic rats; assay: Diabetic rat kidney: Masson's trichrome staining, tubulointerstitial fibrosis; assay type: in vivo
[3] = system: Streptozotocin induced type 1 diabetic rats; assay: Diabetic rat kidney: αSMA protein level, western blot; assay type: in vivo; details: fluvoxamine, predominantly the dose of 20 mg
[4] = system: rat model of bleomycin-induced lung fibrosis; assay: Rat model of bleomycin induced pulmonary fibrosis: αSMA protein in lung, western blot; assay type: in vivo; details: fluvoxamine 20 mg/bwkg/day, three weeks after bleomycin
Method: (Bars represent Mean±SEM, n=6/group).
For the induction of pulmonary fibrosis male Wistar rats were anesthetized. Bleomycin (5 mg/bwkg in a 300 μl solution of isotonic saline) or 300 μl isotonic saline was administered into the trachea using a 30G needle.
Animals were randomly divided into 4 groups of 6 rats each as follows (i)—control group was sham operated, received isotonic saline per os daily for 3 weeks, (ii) vehicle treated group: received isotonic saline per os daily for 3 weeks after the induction of lung fibrosis, (iii) fluvoxamine treated group: received fluvoxamine (20 mg/bwkg/day per os for 3 weeks after the induction of lung fibrosis), (iv) fluvoxamine+NE100 treated group: received fluvoxamine (20 mg/bwkg/day; per os) and 1 mg/bwkg/day NE100 (i.p. for 3 weeks after the induction of lung fibrosis. […]
Tissue samples were lysed in buffer containing leupeptin, aprotinin, Triton X-100, Tris-HCl, Ethylene glycol-bis (2-aminoethylether),N,N,N′,N′-tetraacetic-acid, NaF, Phenylmethylsulphonylfluoride and Na-orthovanadate (each substance were purchased from Sigma-Aldrich Co., St. Louis, Mo., USA) and centrifuged to pellet nuclei and large cellular fragments. Protein concentration of the supernatants was determined by Bradford assay (Bio-Rad Laboratories, Hercules, Calif., USA). […] Bands were analyzed with Quantity One software version 4.6.9. […]

Compound: COCCCC/C(=N\OCCN)c1ccc(C(F)(F)F)cc1 [fluvoxamine, 2-{[(E)-{5-Methoxy-1-[4-(trifluoromethyl)phenyl]pentylidene}amino]oxy}ethanamine]
- cytotoxicity / cell viability in myofibroblasts (NRK49F cells): not cytotoxic
- PDGF-induced myofibroblast proliferation [1]: significantly decreased PDGF-induced myofibroblast proliferation
- diabetes induced tubulointerstitial fibrosis (Masson's trichrome) ([2]; fluvoxamine 20 mg 7 weeks, 20 mg 2 weeks, 2 mg 2 weeks per os): ameliorated the diabetes induced tubulointerstitial fibrosis
- renal structure (Masson's trichrome) ([2]; long-term (7-weeks) fluvoxamine 20 mg/bwkg/day): restored almost the normal renal structure
- αSMA protein level in kidney of diabetic rats [3]: reduced αSMA protein level by the half
- bleomycin-induced αSMA production in the lung [4]: successfully reduced bleomycin-induced αSMA production nearly to the level of controls
